# Test results published in patent US7422846B2, “Natural ligand for orphan G protein coupled receptor GPR86 and methods of use” (Euroscreen S.A, priority 2001, dated 2008).
# Target: T1, GPR86 (P2Y13) human receptor (Homo sapiens, UniProt Q9BPV8, T179M)
# T1 sequence (Q9BPV8 22-354 T179M): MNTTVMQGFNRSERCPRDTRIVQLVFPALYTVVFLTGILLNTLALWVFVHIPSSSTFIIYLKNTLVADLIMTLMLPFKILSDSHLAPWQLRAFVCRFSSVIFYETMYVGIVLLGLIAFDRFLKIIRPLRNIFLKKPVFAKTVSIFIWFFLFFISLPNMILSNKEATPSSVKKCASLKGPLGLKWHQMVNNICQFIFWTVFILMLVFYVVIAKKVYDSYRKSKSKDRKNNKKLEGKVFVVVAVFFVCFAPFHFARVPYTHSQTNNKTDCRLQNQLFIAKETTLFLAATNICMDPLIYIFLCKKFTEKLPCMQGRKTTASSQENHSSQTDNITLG
# Assay: IP3 accumulation in 1321N1 cells (AG32) expressing GPR86 (P2Y13) together with Gα16
# Format: cell-based
# Set-up: expressed in transfected cells; host or cells: 1321N1 astrocytoma clone AG32 (stably expressing Gα16 from pERAEQ2), G418-selected
# Conditions: for EC50: 1321N1 cells expressing GPR86 and Gα16, 30 s, mean±S.D. of three independent experiments, read-out: EC50, IP3 accumulation
# Method: Cells of the invention, for example, 1321N1 cells, are labelled for 24 hours with 10 μCi/ml [^3H] inositol in inositol free DMEM containing 5% FCS, antibiotics, amphotericin, sodium pyruvate and 400 μg/ml G418. Cells are incubated for 2 h in Krebs-Ringer Hepes (KRH) buffer of the following composition (124 mM NaCl, 5 mM KCl, 1.25 mM MgSO4, 1.45 mM CaCl2, 1.25 mM KH2PO4, 25 mM Hepes (pH: 7.4) and 8 mM glucose). The cells are then challenged with various nucleotides for 30 s. The incubation is stopped by the addition of an ice cold 3% perchloric acid solution. IP are extracted and separated on Dowex columns as previously described (25). 2MeSATP and ATP solutions (1 mM) are treated at room temperature with 20 units/ml CPK and 10 Mm cp for 90 min to circumvent problems arising from the contamination and degradation of triphosphate nucleotide solutions.
# CHO-K1 and 1321N1 cells were transfected with the recombinant GPR86-pEFIN5 plasmid or with the plasmid alone using the FuGENE™6 transfection reagent (Roche Molecular Biochemicals). A clone called AG32 corresponding to 1321N1 cells previously transfected with pERAEQ2 plasmid encoding Gα16 (provided by Euroscreen), was transfected. The CHO-K1 and 1321N1 transfected cells were selected with 400 μg/ml G418 in complete medium (10% FBS, 100 units/ml penicillin, 100 μg/ml streptomycin and 2.5 μg/ml amphotericin B in respectively Ham's F12 or DMEM (Dulbecco's modified Eagle's) medium) two days after transfection and maintained in the same medium. The AG32 cells were maintained in the same DMEM complete medium supplemented with 500 μg/ml zeocin.
# The pool of G418-resistant clones was tested for its functional IP3 response to several nucleotides, according to the method described above. The cells were challenged by various nucleotides at a concentration of 100 μM for 30 s: ATP, ADP, UTP, UDP, ITP, IDP, TDP.
# Concentration-action curves for ADP, 2MeSADP and ADPβS. […] 1321N1 transfected cells were incubated in the presence of various concentrations of ADP, 2MeSADP and ADPβS for 30 s. The data represent the mean±S.D. of triplicate experimental points obtained in one representative experiment of three.
# AG32 cells were seeded (200,000 cells per dish) on 35 mm (diameter) Petri dishes and labeled for 24 h with 5 μCi/ml [3H]-myoinositol in inositol free DMEM containing 5% fetal calf serum, antibiotics, amphotericin, sodium pyruvate, and 400 μg/ml of G418. Cells were incubated for 2 h in Krebs-Ringer Hepes (KRH) buffer (124 mM NaCl, 5 mM KCl, 1.25 mM MgSO4, 1.45 mM CaCl2, 1.25 mM KH2PO4, 25 mM Hepes (pH 7.4) and 8 mM D-glucose). The cells were then incubated in presence of ADP, ATP or 2MeSATP for 30 s. The incubation was stopped by the addition of 1 ml of an ice-cold 3% perchloric acid solution. Prior to the stimulation, ATP and 2MeSATP (1 mM solutions) were incubated for 90 min at room temperature with 20 units/ml creatine phosphokinase (CPK) and 10 mM creatine phosphate (CP). The reaction was stopped by addition of 10 mM iodoacetamide.
# AG32 cells were seeded (200,000 cells per dish) on 35 mm (diameter) Petri dishes and labeled for 24 h with 5 μCi/ml [^3H]-myoinositol in inositol free DMEM containing 5% fetal calf serum, antibiotics, amphotericin, sodium pyruvate, and 400 μg/ml of G418. Cells were incubated for 2 h in Krebs-Ringer Hepes (KRH) buffer (124 mM NaCl, 5 mM KCl, 1.25 mM MgSO4, 1.45 mM CaCl2, 1.25 mM KH2PO4, 25 mM Hepes (pH 7.4) and 8 mM D-glucose). The cells were then incubated in presence of two different concentrations (100 nM and 10 μM) of ADP or ApnA (n=3-6) for 30 s. The incubation was stopped by the addition of 1 ml of an ice-cold 3% perchloric acid solution.
# AG32 cells were seeded (200,000 cells per dish) on 35 mm (diameter) Petri dishes and labeled for 24 h with 5 μCi/ml [^3H]-myoinositol in inositol free DMEM containing 5% fetal calf serum, antibiotics, amphotericin, sodium pyruvate, and 400 μg/ml of G418.
Structure (SMILES),EC50 [nM],"IP3 response to nucleotides (100 μM for 30 s, pool of G418-resistant clones expressing GPR86 and Gα16)"
"CSc1nc(N)c2ncn([C@@H]3O[C@H](COP(=O)(O)OP(=O)(O)O)[C@@H](O)[C@H]3O)c2n1 [2MeSADP, 2-methylthio-ADP]",14.2 ± 3,–
Nc1ncnc2c1ncn2[C@@H]1O[C@H](COP(=O)(O)OP(=O)(O)O)[C@@H](O)[C@H]1O [ADP],11.4 ± 2.2,induced an IP3 response
